# Test results taken from patent US20240391931A1 (Bristol-Myers Squibb Company, priority 2021, published 2024).
# Legend:
# [1] = target: T1, HER2 wildtype (WT) protein (Homo sapiens, UniProt P04626); assay: HER2 signaling (pHER2 Tyr1248/total HER2 MSD) in BT474 cells; type: cell-based; settings: 1.5 hr compound, 1% FBS
# T1 construct: BT474 and N87 cell lines which endogenously overexpress the HER2 wildtype (WT) protein; endogenous in cells; host or cells: BT474, N87
# Procedure, shortened: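 BT474, N87 (HER2 WT) and NCI-H1781 (HER2 G776delinsVC) cells were treated for 1.5 h at 37° C in 1% FBS medium with compound at 0.0005–1.1 μM. pHER2 Tyr1248 was measured by MSD on whole-cell lysates and normalized to total HER2 as % DMSO. EC50 came from a variable-slope sigmoidal fit.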
# EGFR = EGFR (Homo sapiens, UniProt P00533); assay: EGFR signaling (pEGFR Tyr1068/total EGFR MSD) in A431 cells; type: cell-based; design: endogenous in cells; host or cells: A431, N87; settings: for EC50: A431 cells, read-out: A431 pEGFR EC50; for Selectivity A431 EC50/BT474 EC50: ratio A431 pEGFR EC50 to BT474 pHER2 EC50; for Selectivity A431 EC50/HEKYVMA EC50: ratio A431 pEGFR EC50 to HEK YVMA pHER2 EC50
# Procedure, shortened: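 EC50 was fitted with variable Hill slope from MSD pTyr1068/total EGFR ratios, expressed as % DMSO control. A431 cells were starved overnight, then exposed 1.5 h to eight concentrations from 10 to 0.005 μM in 1% FBS before a 10-min 100 ng/mL EGF pulse.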
# Chain of EGFR (P00533 25-1210): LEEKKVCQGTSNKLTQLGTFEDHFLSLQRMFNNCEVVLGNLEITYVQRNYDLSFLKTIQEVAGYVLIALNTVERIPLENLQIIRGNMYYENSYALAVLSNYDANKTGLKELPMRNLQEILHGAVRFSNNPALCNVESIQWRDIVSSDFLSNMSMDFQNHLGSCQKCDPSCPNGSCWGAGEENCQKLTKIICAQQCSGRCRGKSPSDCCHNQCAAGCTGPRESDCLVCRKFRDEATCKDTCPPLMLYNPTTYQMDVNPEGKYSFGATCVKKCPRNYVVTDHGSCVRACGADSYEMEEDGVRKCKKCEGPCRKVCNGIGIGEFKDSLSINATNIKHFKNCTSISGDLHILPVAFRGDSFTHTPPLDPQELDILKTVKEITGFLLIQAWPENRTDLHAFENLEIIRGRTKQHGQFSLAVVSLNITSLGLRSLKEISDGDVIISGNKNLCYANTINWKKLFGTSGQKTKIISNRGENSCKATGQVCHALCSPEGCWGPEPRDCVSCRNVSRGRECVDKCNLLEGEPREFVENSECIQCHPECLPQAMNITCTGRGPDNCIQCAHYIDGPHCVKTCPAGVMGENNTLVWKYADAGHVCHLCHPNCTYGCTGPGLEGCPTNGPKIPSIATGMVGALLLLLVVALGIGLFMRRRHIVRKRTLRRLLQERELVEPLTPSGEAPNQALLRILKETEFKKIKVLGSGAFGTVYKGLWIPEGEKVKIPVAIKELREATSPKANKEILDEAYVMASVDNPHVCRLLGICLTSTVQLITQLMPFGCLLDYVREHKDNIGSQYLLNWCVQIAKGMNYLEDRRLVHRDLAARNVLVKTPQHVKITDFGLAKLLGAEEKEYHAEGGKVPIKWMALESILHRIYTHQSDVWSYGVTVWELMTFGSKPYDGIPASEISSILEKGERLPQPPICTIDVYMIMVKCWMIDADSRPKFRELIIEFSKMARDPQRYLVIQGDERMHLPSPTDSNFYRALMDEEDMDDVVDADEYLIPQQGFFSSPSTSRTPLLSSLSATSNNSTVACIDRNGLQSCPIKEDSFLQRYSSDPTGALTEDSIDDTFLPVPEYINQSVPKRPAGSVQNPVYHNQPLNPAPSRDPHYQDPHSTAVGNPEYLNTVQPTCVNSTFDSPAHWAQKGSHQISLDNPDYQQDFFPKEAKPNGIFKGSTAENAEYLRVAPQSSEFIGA
# T1 sequence (P04626 23-1255): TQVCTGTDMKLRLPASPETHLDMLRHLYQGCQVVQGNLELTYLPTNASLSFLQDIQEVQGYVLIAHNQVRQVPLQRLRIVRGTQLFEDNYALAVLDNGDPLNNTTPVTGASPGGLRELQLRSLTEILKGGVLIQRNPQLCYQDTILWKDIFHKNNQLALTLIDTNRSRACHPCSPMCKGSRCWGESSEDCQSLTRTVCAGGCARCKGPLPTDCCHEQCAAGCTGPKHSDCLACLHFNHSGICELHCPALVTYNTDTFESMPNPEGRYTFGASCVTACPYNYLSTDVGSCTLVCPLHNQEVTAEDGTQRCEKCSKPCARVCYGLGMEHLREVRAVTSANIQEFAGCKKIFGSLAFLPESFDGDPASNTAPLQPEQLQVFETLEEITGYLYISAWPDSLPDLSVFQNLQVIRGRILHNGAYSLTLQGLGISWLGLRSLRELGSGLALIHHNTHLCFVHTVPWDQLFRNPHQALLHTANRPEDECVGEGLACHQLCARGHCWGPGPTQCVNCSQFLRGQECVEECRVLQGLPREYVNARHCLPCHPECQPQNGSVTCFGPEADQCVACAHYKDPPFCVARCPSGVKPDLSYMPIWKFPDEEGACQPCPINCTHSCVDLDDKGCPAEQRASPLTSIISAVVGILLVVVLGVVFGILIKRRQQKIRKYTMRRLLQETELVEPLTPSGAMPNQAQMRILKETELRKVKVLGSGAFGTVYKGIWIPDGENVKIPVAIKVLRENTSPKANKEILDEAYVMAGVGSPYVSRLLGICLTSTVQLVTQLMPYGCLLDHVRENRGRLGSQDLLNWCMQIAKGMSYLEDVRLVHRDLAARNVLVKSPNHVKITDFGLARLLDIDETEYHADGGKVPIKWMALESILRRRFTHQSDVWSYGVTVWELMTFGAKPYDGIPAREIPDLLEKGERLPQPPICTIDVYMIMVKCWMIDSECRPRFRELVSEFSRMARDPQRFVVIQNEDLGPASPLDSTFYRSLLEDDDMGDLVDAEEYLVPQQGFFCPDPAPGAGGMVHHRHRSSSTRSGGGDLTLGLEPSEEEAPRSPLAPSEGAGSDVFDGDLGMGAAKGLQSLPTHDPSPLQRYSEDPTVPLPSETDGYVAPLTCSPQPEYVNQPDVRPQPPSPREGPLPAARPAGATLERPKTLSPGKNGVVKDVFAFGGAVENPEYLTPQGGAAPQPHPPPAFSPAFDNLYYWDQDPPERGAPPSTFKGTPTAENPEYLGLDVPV
EC50 [1] [nM],EC50 (EGFR) [nM],Selectivity A431 EC50/BT474 EC50 (EGFR),Selectivity A431 EC50/HEKYVMA EC50 (EGFR),SMILES
< 100,100 to 1000,B (B: ≥ 20 and < 100),A (A: ≥100),"Cc1cc(Nc2ncnc3sc4c(c23)CCN(C(=O)/C=C/CN(C)C)C4)ccc1Oc1ccn2ncnc2c1 [Compound 138, (E)-1-(4-((4-([1,2,4]triazolo[1,5-a]pyridin-7-yloxy)-3-methylphenyl)amino)-5,8-dihydropyrido[4′,3′:4,5]thieno[2,3-d]pyrimidin-7(6H)-yl)-4-(dimethylamino)but-2-en-1-one]"
< 100,< 100,B (B: ≥ 20 and < 100),B (B: ≥ 20 and < 100),C#CCOCCN(C)C/C=C/C(=O)N1CCc2c(sc3ncnc(Nc4ccc(Oc5ccc(C)nc5)c(C)c4)c23)C1 [Compound 139]
< 100,100 to 1000,B (B: ≥ 20 and < 100),C (C: ≥ 10 and < 20),COc1ccc(Oc2ccc(Nc3ncnc4sc5c(c34)CCN(C(=O)/C=C/CN3CC[C@H](CO)C3)C5)cc2C)cn1 [Compound 140]
< 100,100 to 1000,B (B: ≥ 20 and < 100),B (B: ≥ 20 and < 100),"Cc1ccc(Oc2ccc(Nc3ncnc4sc5c(c34)C(C)N(C(=O)/C=C/CN(C)C)C5)cc2C)cn1 (centres unmarked) [Compound 141, (E)-4-(dimethylamino)-1-(5-methyl-4-((3-methyl-4-((6-methylpyridin-3-yl)oxy)phenyl)amino)-5,7-dihydro-6H-pyrrolo[3′,4′:4,5]thieno[2,3-d]pyrimidin-6-yl)but-2-en-1-one]"
< 100,100 to 1000,B (B: ≥ 20 and < 100),E (E: >1 and < 5),Cc1ccc(Oc2ccc(Nc3ncnc4sc5c(c34)CCN(C(=O)/C=C/CN3CC(F)(CO)C3)C5)cc2C)cn1 [Compound 151]

# Continued, compound first:
SMILES,EC50 [1] [nM],EC50 (EGFR) [nM],Selectivity A431 EC50/BT474 EC50 (EGFR),Selectivity A431 EC50/HEKYVMA EC50 (EGFR)
Cc1ccc(Oc2ccc(Nc3ncnc4sc5c(c34)CCN(C(=O)/C=C/CN3CCO[C@H](CO)C3)C5)cc2C)cn1 [Compound 136],< 100,100 to 1000,B (B: ≥ 20 and < 100),C (C: ≥ 10 and < 20)
CCN(CC)C/C=C/C(=O)N1CCc2c(sc3ncnc(Nc4ccc(Oc5ccc(OC)nc5)c(C)c4)c23)C1 [Compound 137],< 100,100 to 1000,D (D: ≥ 5 and < 10),D (D: ≥ 5 and < 10)
"C=CC(=O)N1Cc2sc3ncnc(Nc4ccc(Oc5ccc(C)nc5)c(C)c4)c3c2C(C)C1 (centres unmarked) [Compound 142, 1-(5-methyl-4-((3-methyl-4-((6-methylpyridin-3-yl)oxy)phenyl)amino)-5,6-dihydropyrido[4′,3′:4,5]thieno[2,3-d]pyrimidin-7(8H)-yl)prop-2-en-1-one]",< 100,100 to 1000,B (B: ≥ 20 and < 100),B (B: ≥ 20 and < 100)
COc1ccc(Oc2ccc(Nc3ncnc4sc5c(c34)CCN(C(=O)/C=C/CN3CC[C@@H](CO)C3)C5)cc2C)cn1 [Compound 143],< 100,< 100,C (C: ≥ 10 and < 20),E (E: >1 and < 5)
Cc1ccc(Oc2ccc(Nc3ncnc4sc5c(c34)CCN(C(=O)/C=C/CN3CCO[C@@H](CO)C3)C5)cc2C)cn1 [Compound 144],< 100,100 to 1000,B (B: ≥ 20 and < 100),D (D: ≥ 5 and < 10)
Cc1ccc(Oc2ccc(Nc3ncnc4sc5c(c34)CCN(C(=O)/C=C/CN3CCCC(F)(CO)C3)C5)cc2C)cn1 (centres unmarked) [Compound 150],< 100,100 to 1000,B (B: ≥ 20 and < 100),E (E: >1 and < 5)
